Data as given in paper PMC12446476 (Nature Communications, 2025).
In brackets after ≈: the same amount, converted by molar mass. Several values for one entry are separate records, joined by “and”; a condition that tells them apart may be missing. Equal entries are not always repeated. Where two headings read alike, the source gives them in different places.

What was measured:
N. gonorrhoeae = assay: MIC determination, broth microdilution (baseline for liquid-based assays); type: cell-based, Neisseria gonorrhoeae; conditions: for MIC: Neisseria gonorrhoeae
Excerpt: The 2024 WHO N. gonorrhoeae reference strains were used for quality control. Only whole MIC doubling dilutions are reported. Clinical breakpoints or the epidemiological cutoff (ECOFF, to indicate azithromycin resistance) from EUCAST (v14.0, https://www.eucast.org/clinical_breakpoints) were used to classify isolates as antimicrobial susceptible or resistant. […] Two times the standard inoculum defined by CLSI was used to establish consistent growth in untreated control samples for some strains. In vitro time-kill assays were performed according to CLSI guidelines[65] using Columbia Broth (BD Difco) supplemented with 1% IsoVitaleX Enrichment (BD). Viable bacterial counts were generated by plating 10-fold serially diluted samples on GC agar plates containing 1% IsoVitaleX Enrichment (BD).

[1] = target: recombinant NgFabI protein (Neisseria gonorrhoeae, UniProt A0ACH0F547); assay: biochemical
Chain of recombinant NgFabI protein (A0ACH0F547 entry or part of it): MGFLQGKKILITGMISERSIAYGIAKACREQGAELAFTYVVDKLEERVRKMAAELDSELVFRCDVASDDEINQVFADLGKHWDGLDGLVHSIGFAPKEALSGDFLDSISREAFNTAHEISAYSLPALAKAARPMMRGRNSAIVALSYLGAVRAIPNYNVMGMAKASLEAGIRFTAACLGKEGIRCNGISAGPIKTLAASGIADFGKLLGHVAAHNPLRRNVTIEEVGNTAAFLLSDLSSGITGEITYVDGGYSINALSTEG
Protocol: FabI activity was monitored by measuring NADH consumption. […] To initiate reactions, 50 µM NADH was added, and absorbance was monitored at 340 nm every 12 s for a total of 40 min using a Spectramax Plus 384 plate reader (Molecular Devices) at a controlled temperature of 30 °C. Data were analysed using the XLfit Microsoft Excel plugin (version 5.5). IC50 values were determined using a logistic sigmoid curve-fitting of the inhibitor dose response curves.

S. aureus = assay: MIC determination for S. aureus, broth dilution; type: cell-based; conditions: Staphylococcus aureus, ATCC29213; S. aureus ATCC 29213
human lymphocytes = assay: In vitro micronucleus test; type: cell-based
[2] = tested on: Salmonella typhimurium (TA1535, TA1537, TA98 and TA100); type: cell-based
Protocol: Ames assays were performed using four strains of Salmonella typhimurium (TA1535, TA1537, TA98 and TA100) and a single strain of E. coli (WRP2 uvrA) in the presence and absence of S9 tissue homogenate. Dose levels (µg/plate) up to 4000 were assessed for WP2 uvrA and TA98, 500 for TA1535, 250 for TA1537 and 62.5 for TA100.

[3] = TA98, without S9, 62.5 µg/plate
[4] = TA100, without S9, 15.6 µg/plate
[5] = TA100, without S9, 31.3 µg/plate
[6] = TA1535, without S9, 10 µg/plate
[7] = TA1535, without S9, 15.6 µg/plate
[8] = TA1535, without S9, 31.3 µg/plate
[9] = TA1535, without S9, 62.5 µg/plate
[10] = TA1535, without S9, 250 µg/plate
[11] = TA1537, without S9, 10 µg/plate
[12] = TA1537, without S9, 15.6 µg/plate
[13] = TA1537, without S9, 31.3 µg/plate
[14] = TA1537, without S9, 62.5 µg/plate

In the case of `Cc1c(CN(C)C(=O)/C=C/c2cnc3c(c2)N[C@H](C)[C@H](O)C(=O)N3)oc2ccccc12` [Debio 1453], the “MIC, broth microdilution” value (N. gonorrhoeae; 6804) is reported as 0.06 mg/L (≈ 0.143 µM), the “MIC, broth microdilution” value (N. gonorrhoeae; AR Bank0175) is reported as 0.06 mg/L (≈ 0.143 µM) and the “MIC, broth microdilution” value (N. gonorrhoeae; AR Bank0179) is reported as 0.06 mg/L (≈ 0.143 µM). It also gave an MIC (N. gonorrhoeae; ATCC49226, read-out: MIC, broth microdilution, ATCC 49226) of 0.125 mg/L (≈ 0.297 µM), an MIC (N. gonorrhoeae; ATCC700825, ATCC 700825, read-out: MIC, broth microdilution) of 0.03 mg/L (≈ 0.0713 µM) and an MIC (N. gonorrhoeae; read-out: MIC, broth microdilution, WHO V) of 0.125 mg/L (≈ 0.297 µM). The MIC (N. gonorrhoeae; read-out: MIC, broth microdilution, WHO X) was 0.125 mg/L (≈ 0.297 µM), the MIC (N. gonorrhoeae; read-out: MIC, broth microdilution, WHO Y) was 0.125 mg/L (≈ 0.297 µM) and the MIC (N. gonorrhoeae; read-out: MIC, broth microdilution, WHO Z) was 0.125 mg/L (≈ 0.297 µM). The MIC (N. gonorrhoeae; 6926, read-out: MIC, broth microdilution) was 0.06 mg/L (≈ 0.143 µM), the IC50 [1] was 0.6 nM and the MIC (S. aureus) was 0.008 mg/L (≈ 0.019 µM).
With `Cc1c(CN(C)C(=O)/C=C/c2cnc3c(c2)N[C@H](C)[C@H](OP(=O)([O-])[O-])C(=O)N3)oc2ccccc12.[Na+].[Na+]` [Debio 1453 P] the “in vitro micronucleus test result” value (human lymphocytes) was “negative”, the “Ames bacterial mutation assessment, Mean” value ([2]; TA98, with S9, 62.5 µg/plate) was 34 and the Colony count ([2]; TA98, with S9, 62.5 µg/plate) was 35 and 36 and 30. For the same compound, the “Ames bacterial mutation assessment, Mean” value ([2]; TA98, with S9, 250 µg/plate) was 26, the Colony count ([2]; TA98, with S9, 250 µg/plate) was 28 and 26 and 23 and the “Ames bacterial mutation assessment, Mean” value ([2]; TA98, with S9, 500 µg/plate) was 12. The Colony count ([2]; TA98, with S9, 500 µg/plate) was 14 and 12 and 11, the “Ames bacterial mutation assessment, Mean” value [2, 3] was 32 and the Colony count [2, 3] was 36 and 29 and 32. For the same compound, the “Ames bacterial mutation assessment, Mean” value ([2]; TA98, without S9, 250 µg/plate) was 22, the Colony count ([2]; TA98, without S9, 250 µg/plate) was 24 and 21 and 20 and the “Ames bacterial mutation assessment, Mean” value ([2]; TA98, without S9, 500 µg/plate) was 12. For the same compound, the Colony count ([2]; TA98, without S9, 500 µg/plate) was 12 and 13 and 10, the “Ames bacterial mutation assessment, Mean” value ([2]; TA100, with S9, 5 µg/plate) was 141 and the Colony count ([2]; TA100, with S9, 5 µg/plate) was 143 and 140 and 141. For the same compound, the “Ames bacterial mutation assessment, Mean” value ([2]; TA100, with S9, 10 µg/plate) was 128, the Colony count ([2]; TA100, with S9, 10 µg/plate) was 123 and 133 and 128 and the “Ames bacterial mutation assessment, Mean” value ([2]; TA100, with S9, 15.6 µg/plate) was 60. The Colony count ([2]; TA100, with S9, 15.6 µg/plate) was 57 and 59 and 64, the “Ames bacterial mutation assessment, Mean” value ([2]; TA100, with S9, 31.3 µg/plate) was 30 and the Colony count ([2]; TA100, with S9, 31.3 µg/plate) was 30 and 29 and 32. The “Ames bacterial mutation assessment, Mean” value ([2]; TA100, without S9, 5 µg/plate) was 146, the Colony count ([2]; TA100, without S9, 5 µg/plate) was 146 and 143 and 149 and the “Ames bacterial mutation assessment, Mean” value ([2]; TA100, without S9, 10 µg/plate) was 134. For the same compound, the Colony count ([2]; TA100, without S9, 10 µg/plate) was 125 and 145 and 131, the “Ames bacterial mutation assessment, Mean” value [2, 4] was 59 and the Colony count [2, 4] was 66 and 54 and 58. For the same compound, the “Ames bacterial mutation assessment, Mean” value [2, 5] was 33, the Colony count [2, 5] was 32 and 31 and 36 and the “Ames bacterial mutation assessment, Mean” value ([2]; TA1535, with S9, 10 µg/plate) was 18. For the same compound, the Colony count ([2]; TA1535, with S9, 10 µg/plate) was 19 and 16, the “Ames bacterial mutation assessment, Mean” value ([2]; TA1535, with S9, 15.6 µg/plate) was 15 and the Colony count ([2]; TA1535, with S9, 15.6 µg/plate) was 18 and 14. For the same compound, the “Ames bacterial mutation assessment, Mean” value ([2]; TA1535, with S9, 31.3 µg/plate) was 16, the Colony count ([2]; TA1535, with S9, 31.3 µg/plate) was 17 and 16 and 14 and the “Ames bacterial mutation assessment, Mean” value ([2]; TA1535, with S9, 62.5 µg/plate) was 14. The Colony count ([2]; TA1535, with S9, 62.5 µg/plate) was 15 and 12 and 16, the “Ames bacterial mutation assessment, Mean” value ([2]; TA1535, with S9, 250 µg/plate) was 6 and the Colony count ([2]; TA1535, with S9, 250 µg/plate) was 5 and 7. The “Ames bacterial mutation assessment, Mean” value ([2]; TA1535, with S9, 500 µg/plate) was 5, the Colony count ([2]; TA1535, with S9, 500 µg/plate) was 6 and 5 and the “Ames bacterial mutation assessment, Mean” value [2, 6] was 19. For the same compound, the Colony count [2, 6] was 18 and 21, the “Ames bacterial mutation assessment, Mean” value [2, 7] was 17 and the Colony count [2, 7] was 17 and 16. The “Ames bacterial mutation assessment, Mean” value [2, 8] was 13, the Colony count [2, 8] was 14 and 13 and the “Ames bacterial mutation assessment, Mean” value [2, 9] was 11. For the same compound, the Colony count [2, 9] was 11 and 12, the “Ames bacterial mutation assessment, Mean” value [2, 10] was 6 and the Colony count [2, 10] was 6 and 8 and 4. The “Ames bacterial mutation assessment, Mean” value ([2]; TA1535, without S9, 500 µg/plate) was 4, the “Ames bacterial mutation assessment, Mean” value ([2]; TA1537, with S9, 10 µg/plate) was 17 and the Colony count ([2]; TA1537, with S9, 10 µg/plate) was 16 and 19. The “Ames bacterial mutation assessment, Mean” value ([2]; TA1537, with S9, 15.6 µg/plate) was 18, the Colony count ([2]; TA1537, with S9, 15.6 µg/plate) was 19 and 16 and 18 and the “Ames bacterial mutation assessment, Mean” value ([2]; TA1537, with S9, 31.3 µg/plate) was 10. The Colony count ([2]; TA1537, with S9, 31.3 µg/plate) was 10 and 11 and 9, the “Ames bacterial mutation assessment, Mean” value [2, 11] was 19 and the Colony count [2, 11] was 17 and 20 and 19. For the same compound, the “Ames bacterial mutation assessment, Mean” value [2, 12] was 18, the Colony count [2, 12] was 19 and 20 and 16 and the “Ames bacterial mutation assessment, Mean” value [2, 13] was 15. For the same compound, the Colony count [2, 13] was 16 and 14, the “Ames bacterial mutation assessment, Mean” value [2, 14] was 7 and the Colony count [2, 14] was 8 and 6. The Ames assay result ([2]; presence and absence of S9, highest concentrations tested) was “non-mutagenic”.
